Test results from PMC10976043, “Function and Mechanism of Antiviral Wasp Venom Peptide Protopolybia-MP III and Its Derivatives against HSV-1” (Toxins, 2024).
Where two headings read alike, the source gives them in different places. Ends that are not written are not given here.

Legend:
HSV-1 = assay type: cell-based, herpes simplex virus type 1; details: for effect on intracellular HSV-1 RNA: different concentrations, HSV-1 MOI 1, 24 h, qPCR
Experimental: (§1) (A) Amino acid sequence of Protopolybia-MP III. Basic residues are labeled blue, and acidic residues are labeled red. (B,C) Suppression of intracellular HSV-1 infection by Protopolybia-MP III. Cells were preincubated with Protopolybia-MP III at different concentrations or PBS for 1 h and then infected with HSV-1 at a multiplicity of infection (MOI) of 1. After 24 h, the cells were collected. Intracellular HSV-1 RNA was analyzed by qPCR (B), and intracellular HSV-1 ICP0 protein levels were analyzed by Western blotting (C). (D) Suppression of Protopolybia-MP III on extracellular HSV-1 particles. Cells were treated with Protopolybia-MP III at different concentrations or PBS for 24 h, and then the supernatant was collected and evaluated in a plaque formation assay. (E) Cytotoxicity of Protopolybia-MP III to Vero cells. Cells were treated with Protopolybia-MP III or PBS at different concentrations for 24 h, and then the cytotoxicity was determined by CCK8 assay. * p < 0.05. ** p < 0.01. *** p < 0.001.
(§2) Figure 2 Protopolybia-MP III inhibits HSV-1 replication in human cell lines. (A) Cytotoxicities of Protopolybia-MP III to A549 cells, HCEC, and SK-N-MC. Cells were treated with Protopolybia-MP III at different concentrations or PBS for 24 h, and then cytotoxicities were determined by the CCK8 assay. (B,C) Suppression of intracellular HSV-1 infection by Protopolybia-MP III in A549 cells, HCEC, and SK-N-MC. Cells were preincubated with Protopolybia-MP III at different concentrations or PBS for 1 h and then infected with HSV-1 at an MOI of 1. After 24 h, the cells were collected. Intracellular HSV-1 RNA was analyzed by qPCR (B), and intracellular HSV-1 ICP0 protein expression levels were analyzed by Western blotting (C). (D) Inhibition of Protopolybia-MP III on extracellular HSV-1 particles in A549 cells, HCEC, and SK-N-MC. Cells were treated with Protopolybia-MP III at different concentrations or PBS for 24 h, and then the supernatant was collected and evaluated in a plaque formation assay. * p < 0.05. ** p < 0.01. *** p < 0.001.
HSV-1 was kindly provided by Professor Zhijian Cao of Wuhan University. Cells were infected with HSV-1 at an MOI of 1 for 24 h. Then, cells were collected for qPCR, Western blotting, and immunofluorescence assays, and the extracellular supernatant was used for plaque formation assays.
Cells were collected and lysed using TRIzol reagent (Beyotime Biotechnology, Shanghai, China) to release the intracellular total RNA, followed by precipitation with isopropanol. The first-strand cDNA was reverse-transcribed by the HiScript III 1st Strand cDNA Synthesis Kit (+gDNA wiper) (Vazyme, Nanjing, China). The cDNA was quantitated by qPCR with primers using Taq Pro Universal SYBR qPCR Master Mix (Vazyme). The HSV-1 primers were 5′-[…]-3′ (sense) and 5′-[…]-3′ (antisense). The monkey GAPDH primers were 5′-[…]-3′ (sense) and 5′-[…]-3′ (antisense). The human GAPDH primers were 5′-[…]-3′ (sense) and 5′-[…]-3′ (antisense). qPCR experiments were performed on a Bio-Rad CFX96 Touch (Pleasanton, CA, USA) according to the manufacturer’s instructions.

Vero cells = test: CCK8 cytotoxicity assay, Vero cells; assay type: cell-based, monkey; details: 40 μg/mL, 24 h
Experimental: as §1
(§3) Cells were seeded in a 96-well plate (7000–10,000 cells per well) and cultured at 37 °C overnight. Peptides in a series of concentrations were added to the medium, and cells were then incubated at 37 °C for 24 h. […] Finally, the absorbance was measured at 450 nm using a microplate reader (BioTek, Winooski, VT, USA).

A549 cells = test: CCK8 cytotoxicity assay, A549 cells; assay type: cell-based, human; details: 40 μg/mL, 24 h
Experimental: as §2, §3

HSV-1 virion = test: Virion integrity assay (ultracentrifugation/gB Western blotting, electron microscopy); set-up: species or system herpes simplex virus type 1; details: 20 μg/mL with HSV-1 at 37 °C 1 h
Experimental: Figure 5 Protopolybia-MP III destroys the integrity of HSV-1 free virions. (A) Schematic diagram for studying the effect of Protopolybia-MP III on HSV-1 free virion infectivity. (B) Effects of Protopolybia-MP III on HSV-1 free virion infectivity at different temperatures. HSV-1 (MOI = 1) and 20 μg/mL Protopolybia-MP III or PBS were coincubated at 4 °C, 22 °C, and 37 °C for 1 h, and then Vero cells were infected as described in (A). After 24 h, cells were collected, and intracellular HSV-1 RNA was analyzed by qPCR. (C) Effects of different concentrations of Protopolybia-MP III on HSV-1 free virion infectivity. HSV-1 (MOI = 1) and 1 or 10 μg/mL Protopolybia-MP III or PBS were coincubated at 37 °C for 1 h, and then Vero cells were infected as described in (A). After 24 h, cells were collected, and intracellular HSV-1 RNA was analyzed by qPCR. (D,E) The effect of Protopolybia-MP III on HSV-1 free virion integrity. HSV-1 and 20 μg/mL Protopolybia-MP III or PBS were coincubated at 37 °C for 1 h. Then, after centrifuging for 2 h at 40,000 rpm at 4 °C, the contents of HSV-1 gB in the supernatant and precipitate were detected by Western blotting (D). In addition, the structure of HSV-1 virions after incubation with Protopolybia-MP III was observed by electron microscopy. The red arrow points to a destroyed HSV-1 virion. *** p < 0.001.
HSV-1 virions were coincubated with PBS or 20 μg/mL Protopolybia-MP III at 37 °C for 1 h. Then, the virions were separated by ultracentrifugation at 40,000 rpm at 4 °C for 2 h in a Beckman SW41 rotor (Beckman Coulter, Brea, CA, USA). The supernatant was collected and lyophilized using a vacuum freeze dryer (Labconco FreeZone6L, Kansas City, MO, USA). HSV-1 glycoprotein gB from both the precipitate and supernatant components were measured by Western blotting. In addition, after HSV-1 was coincubated with PBS or 20 μg/mL Protopolybia-MP III at 37 °C for 1 h, samples were placed on 200-mesh var/carbon-coated copper grids by dipping the grids into the virion sample solutions. […]

[1] = ultracentrifugation 40,000 rpm 2 h 4 °C, Western blotting

Substance: INWLKLGKAVIDAL-NH2 [Protopolybia-MP III]
- 50% inhibitory concentration (IC50) against HSV-1 RNA (HSV-1; 1 h): 5.132 ± 1.054 µg/mL
- inhibition rate on intracellular HSV-1 RNA (HSV-1; 1 h, 5 μg/mL): 50%
- inhibition rate on intracellular HSV-1 RNA (HSV-1; 1 h, 10 μg/mL): 73%
- inhibition rate on intracellular HSV-1 RNA (HSV-1; 1 h, 20 μg/mL): 94%
- effect on intracellular HSV-1 RNA (HSV-1; A549 cells): suppressed HSV-1 RNA
- effect on intracellular HSV-1 RNA (HSV-1; HCEC): suppressed HSV-1 RNA
- effect on intracellular HSV-1 RNA (HSV-1; SK-N-MC): suppressed HSV-1 RNA
- cytotoxicity to Vero cells (Vero cells): almost nontoxic
- cytotoxicity to A549 cells (A549 cells): almost nontoxic
- HSV-1 virion structure by electron microscopy (HSV-1 virion; negative staining): destroyed
- gB content in the precipitate compared with PBS treatment (HSV-1 virion; [1]): significantly reduced
- gB content in the supernatant compared with PBS treatment (HSV-1 virion; [1]): increased
